Test results taken from PubChem BioAssay AID179 (DTP/NCI, 2004).
Activity calls are given as the source filed them.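 Rule for the calls: active = compounds giving half or more protection of infected cells from virus-caused growth loss, again on retest; inactive = the rest.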

Tested on: CEM cells HIV-1 protection, formazan growth assay
Test: NCI AIDS Antiviral Assay
Conditions: for IC50: measured here: growth of uninfected CEM cells
Summary of the method: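 Category rules: moderately active means at least 50% protection on retest, and confirmed active means 100% protection reproducibly. The underlying data came from a formazan growth assay in HIV-1-infected CEM cells.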

Compound | EC50 | IC50 | outcome
CN=C1OC2(c3ccccc3)C3=C(OC(=NC)N2C)C(=O)OC3(c2ccccc2)N1C (centres undefined) | > 200 µM | 148 µM | –
COC(=O)C1=C(O)c2cc(C)c(C)c(C#N)c2NC(=O)C1 | > 200 µM | > 200 µM | –
CCc1ccccc1N=NC(=O)NNc1ccccc1CC | > 200 µM | 70.8 µM | –
CC(C)(C)Cc1cssc1=S | > 200 µM | > 200 µM | –
COc1ccc(Br)c(N/N=C2\CCCNC2=O)c1 | – | – | inactive
COC(=O)c1ccc(/C=C2\Oc3ccccc3C2=O)cc1 | > 200 µM | > 200 µM | –
CN1C(=O)CCC2(c3ccccc3)CC=C(O)C=C12 (centres undefined) | > 200 µM | > 200 µM | –
COc1ccc(-c2c(C(=O)O)oc3cc(O)ccc3c2=O)cc1OC | > 200 µM | > 200 µM | –
CN(c1nc(=[N+](C)C)ss1)C1CCCCC1 | – | – | inactive
CC(=O)OCC1OC(OCCCCCCO)C(OC(C)=O)C(OC(C)=O)C1OC(C)=O (centres undefined) | > 200 µM | > 200 µM | –
O=NC1C(Cl)C2CC1C1C(Br)C(Br)CC21 (centres undefined) | > 200 µM | > 200 µM | –
CCC1OC2CS(=O)(=O)CC2O1 (centres undefined) | > 1290 µM | > 1290 µM | –
CC1(C)OC2O[C@H](C3OC[C@H]4O[C@@H](n5ccc(=O)[nH]c5=O)C(O)[C@H]4N3O)[C@@H]3OC(C)(C)O[C@@H]3C2O1 (some centres undefined) | > 200 µM | 105 µM | –
Cc1ccc(N=NC2Sc3nc4ccccc4n3C2=O)cc1 (centres undefined) | > 200 µM | > 200 µM | –
CCOC(=O)c1sc2nc(SC)nc3c2c1N=CN3c1ccc(Br)cc1 | – | – | inactive
CCN(CC)CCCNc1nccc2c(C)c3[nH]c4ccncc4c(=O)c3cc12 | > 174 µM | 1.07 µM | –
Cn1cc(S(=O)(=O)NC(=O)Nc2ccc(Cl)cc2)c(=O)c2ccc(Cl)cc21 | > 200 µM | 36.3 µM | –
Cc1cc(C)n(-c2nc(-c3ccccc3)cs2)n1 | > 200 µM | 72.4 µM | –
CCOC(=O)c1c(-c2ccccc2)csc1N | > 123 µM | 107 µM | –
CC(=O)c1ccc(-c2oc(-c3ccccc3)cc2-c2ccc3c(c2)OCO3)s1 | > 200 µM | 22.9 µM | –
C[C@H](CCc1nc(C#N)c(N)o1)[C@H]1CC[C@H]2[C@@H]3[C@@H](O)CC4C[C@@H](O)CC[C@]4(C)[C@H]3C[C@@H](O)[C@]12C (some centres undefined) | > 200 µM | 16.6 µM | –
Nc1ccc(-c2nc3ccccc3s2)cc1S(=O)(=O)O | > 200 µM | 60.3 µM | –

Compound | EC50 | IC50 | outcome
C#CC(O)/C=C/CCCCCCCCC/C=C/CCCCCCCCC/C=C/C(O)C#C (centres undefined) | – | – | inactive
O=c1[nH]nc(-c2ccccc2)n1/N=C/c1cccnc1 | > 200 µM | 61.7 µM | –
CC1=C(C(=O)NCCc2ccccc2)CC(C(=O)NCCc2ccccc2)=C(C)N1 | > 200 µM | 123 µM | –
NC(CSS(=O)(=O)O)=NC1CC2CCC1C2 (centres undefined) | > 200 µM | 120 µM | –
CCCCCCCCCCNCCSSc1ccccc1 | > 200 µM | 4.27 µM | –
CC(C)(C)n1c(=O)n(C(=O)C(Cl)(Cl)Cl)n(C(=O)C(Cl)(Cl)Cl)c1=O | > 200 µM | > 200 µM | –
Cc1ccc(/C(C#N)=C/c2ccccc2)cc1 | > 200 µM | 28.8 µM | –
CC1=CCCC2C1(C)CCC(C)C2(C)Cc1cc(O)ccc1O (centres undefined) | > 100 µM | 12 µM | –
N#Cc1sc2c(c1OC(=O)c1ccc(Cl)cc1Cl)c(=O)n(-c1ccccc1)c(=S)n2-c1ccccc1 | > 200 µM | 1.23 µM | –
N#CC(C(=N/NC(N)=S)/C(=N\NC(N)=S)C(C#N)c1ccccc1)c1ccccc1 (centres undefined) | > 97.7 µM | 47.9 µM | –
Cc1ccc(NP2(=O)N(Cc3ccc(Cl)cc3)CCCN2Cc2ccc(Cl)cc2)cc1 | > 200 µM | 11 µM | –
O=C(O)C1=C(C(=O)O)C2CCC1C2 | > 200 µM | > 200 µM | –
O=[N+]([O-])C(=C/c1cccc2ccccc12)/C(=C\c1cccc2ccccc12)[N+](=O)[O-] | > 20 µM | 9.12 µM | –
c1ccc(CNCCCCNCCCNCc2ccccc2)cc1 | > 200 µM | 13.8 µM | –
O=NC1(c2ccccc2)CCCCC1[N+](=O)[O-] (centres undefined) | > 200 µM | > 200 µM | –
CN(C)C(=O)OCOP(=O)(OCOC(=O)N(C)C)OCC1CCC(n2ccc(=O)[nH]c2=O)O1 (centres undefined) | > 200 µM | 93.3 µM | –
CC1CCCC(C(O)CC2CC(=O)N(c3ccccc3)C(=O)C2)C1=O (centres undefined) | > 200 µM | > 200 µM | –
CCO[C@]12C[C@H](OC)[C@@]3(O)CC(C1[C@H]3O)C13C4C2[C@H](OC)C1[C@](COC)(CN4CC)[C@H](O)C[C@@H]3OC (some centres undefined) | > 200 µM | 1.58 µM | –
CC(C)(CN1CCCCC1)C(=O)/C=C/c1ccccc1 | > 141 µM | 69.2 µM | –
CCC(C)(C)c1ccc(OP(=S)(S)Oc2ccc(C(C)(C)CC)cc2)cc1 | > 200 µM | 37.2 µM | –
COc1ccc(-c2cc(-c3ccco3)c(C#N)c(=O)[nH]2)cc1 | > 24.5 µM | > 24.5 µM | –
O=C1CCc2cc3c(cc21)CC1(Cc2cc4c(cc2C1)CCCC4)C3 | > 200 µM | 138 µM | –

Compound | EC50 | IC50 | outcome
O=C1CC[C@H]2CO[C@H](c3ccccc3)N12 | > 200 µM | > 200 µM | –
Brc1ccc(-c2nnc(-c3nn(-c4ccccc4)c4nc5ccccc5nc34)o2)cc1 | > 8.13 µM | > 8.13 µM | –
Oc1cc2cccc[n+]2c2cc(Cl)ccc12 | > 200 µM | 91.2 µM | –
O=[N+]([O-])C(C=C(n1nnc2ccccc21)n1nnc2ccccc21)=C(n1nnc2ccccc21)n1nnc2ccccc21 | > 200 µM | > 200 µM | –
COC(=O)C(=O)C(C(=O)C(=O)Nc1ccc([N+](=O)[O-])cc1[N+](=O)[O-])c1nc2ccc(Cl)cc2[nH]c1=O (centres undefined) | > 132 µM | > 132 µM | –
CN(C)N=Nc1ccc(S(N)(=O)=O)cc1 | > 295 µM | 37.2 µM | –
CN(C)NC1=NS(=O)(=O)c2cc3c(=O)n(C)[nH]c3cc2S1 | > 200 µM | 138 µM | –
COc1cccc(CC2C(=O)N=C(NC(C)=O)N2C)c1OC(C)=O (centres undefined) | > 200 µM | 151 µM | –
CCc1cc[c]([Sb](=[O])([OH])[OH])cc1 | – | – | inactive
COC(=O)c1cc(C)ccc1CC(Cc1ccccc1C)C(=O)OC (centres undefined) | > 200 µM | 37.2 µM | –
COc1ccc(-c2cc(=O)c3ccc(O)cc3o2)cc1 | > 83.2 µM | > 83.2 µM | –
CCCCCCC1CCC2CCCC(C)N12 (centres undefined) | > 162 µM | > 162 µM | –
O=[N+]([O-])c1ccc(OCCC[P+](c2ccccc2)(c2ccccc2)c2ccccc2)c(Cl)c1 | > 200 µM | 1.7 µM | –
O=C1CC(c2ccccc2)S(=O)c2ccccc2N1 (centres undefined) | > 200 µM | > 200 µM | –
COc1cc2c(cc1O)-c1oncc1CCC2 | > 77.6 µM | > 77.6 µM | –
CSS(C)(=O)=O | > 1120 µM | 53.7 µM | –
CCO[C@]12C[C@H](OC)[C@@]3(O)CC(C1[C@H]3OCc1ccccc1)C13C4C2[C@H](OC)C1[C@](COC)(CN4CC)[C@H](O)C[C@@H]3OC (some centres undefined) | 17 µM | 117 µM | –
O=C(/C=C(\Cl)c1c[nH]c(=O)[nH]c1=O)c1ccccc1 | – | – | inactive
C/C(CCO)=N\NC(N)=S | > 200 µM | > 200 µM | –
N#CC1=C(S)N(C2OC(CO)C(O)C(O)C2O)C(c2ccccc2)=CC1c1cccs1 (centres undefined) | > 200 µM | 27.5 µM | –
OC[C@@H](O)[C@H](O)[C@H](O)[C@@H](O)C1SCCCS1 | > 200 µM | > 200 µM | –
Clc1ccc(SSc2ccc(Cl)cn2)nc1 | > 200 µM | 20.4 µM | –

Compound | EC50 | IC50 | outcome
Nc1ccc(C2=Nc3ccccc3SC(c3ccccc3O)C2)cc1 (centres undefined) | > 11 µM | > 11 µM | –
COC(=O)N1CC[C@@H]2CCC=C(c3cccc4c3OCO4)[C@@H]21 | – | – | inactive
COC(=O)CCCC=C(c1cc(Br)c(OC)c(C(=O)OC)c1)c1cc(Br)c(OC)c(C(=O)OC)c1 | 1.82 µM | 42.7 µM | –
O=C(Nc1ccc(Cl)c(Cl)c1)C1C(=O)N(c2ccc(Cl)c(Cl)c2)C(=O)/C1=N\O (centres undefined) | – | – | inactive
Nc1ccc2ccccc2c1N=Nc1ccc(/C=C/c2ccc(N=Nc3c(N)ccc4ccccc34)cc2S(=O)(=O)O)c(S(=O)(=O)O)c1 | 63.1 µM | 115 µM | –
O=C1OC(C2Cc3ccc4c(c3C2=O)CCC4)c2ccccc21 (centres undefined) | > 200 µM | 81.3 µM | –
CC1CCOc2ccc(cc2)C=Nc2ccc(cc2)CCc2ccc(cc2)N=Cc2ccc(cc2)OCC1 (centres undefined) | > 200 µM | > 200 µM | –
[B]C(=O)NC(CC(C)C)C(=O)NCC(=O)NC1c2ccsc2C(=O)C1O (centres undefined) (tested in a mixture with another compound) | > 200 µM | > 200 µM | –
O=C1N=CN=C2C=CC(Cl)=C(I)C12 (centres undefined) | > 85.1 µM | > 85.1 µM | –
CC(=O)OCC1Cn2c(c(-c3ccccc3)c(=O)[nH]c2=S)O1 (centres undefined) | > 603 µM | > 603 µM | –
COc1ccc(N2NC(c3ccccc3)(c3ccccc3)C(C)C2=O)cc1 (centres undefined) | > 200 µM | 11 µM | –
CN(C)C(=S)/N=C(\N)N(C)C | – | – | inactive
Cc1ccc(S(=O)(=O)N2CCc3cc(O)c([N+](=O)[O-])cc32)cc1 | > 200 µM | > 200 µM | –
COc1ccc(CCNC(=S)N/C=C\c2nc3ccccc3[nH]c2=O)cc1OC | – | – | inactive
CC(=O)OCC1OC(NC(=S)N/N=C2\CC(c3ccccc3)Oc3ccccc32)C(OC(C)=O)C(OC(C)=O)C1OC(C)=O (centres undefined) | – | – | inactive
Cc1ccc(/C=C(/C(=O)c2ccccc2)c2ccccc2)cc1 | > 4.9 µM | > 4.9 µM | –
CCOC(=O)C(NC(C)=O)[CH](c1ccccc1)[Sn]([Cl])([c]1ccccc1)[c]1ccccc1 (centres undefined) | > 200 µM | 91.2 µM | –
Cc1cn(C2C=CC(CO)O2)c(=O)[nH]c1=O (centres undefined) | 1.62 µM | 186 µM | –
O=C(O)c1nc(-c2ccc(Cl)c(Cl)c2)nc2ccc(Cl)cc12 | – | – | inactive
COC(=O)c1ccccc1/C=C1\Cc2cc(C)c(C)cc2C1=O | > 100 µM | > 100 µM | –
CCn1c(N)c(N=O)c(=O)n(CC)c1=O | > 200 µM | > 200 µM | –
Cc1ccc(S(=O)(=O)OC(c2ccccc2)c2ccccc2)cc1 | > 15.5 µM | 10.5 µM | –
